# In ChEMBL document CHEMBL1151092, “Novel 4-substituted pyridine derivatives: Practical derivatization and biological profiles of reversible inhibitors” (Bioorg Med Chem Lett, 1997):
# Legend:
# Assay type in all cases: tissue-based
# [1] = molecular target: T1, Potassium-transporting ATPase (Sus scrofa) (UniProt P18434+P19156); assay: The compound was tested for its inhibitory activity against H+/K+ ATPase by using hog stomach membrane fractions at 4 uM
# [2] = molecular target: Potassium-transporting ATPase (Sus scrofa, UniProt P19156); assay: The compound was tested for its inhibitory activity against H+/K+ ATPase by using hog stomach membrane fractions (pH 6.4)
# Chain of Potassium-transporting ATPase (P18434 whole entry): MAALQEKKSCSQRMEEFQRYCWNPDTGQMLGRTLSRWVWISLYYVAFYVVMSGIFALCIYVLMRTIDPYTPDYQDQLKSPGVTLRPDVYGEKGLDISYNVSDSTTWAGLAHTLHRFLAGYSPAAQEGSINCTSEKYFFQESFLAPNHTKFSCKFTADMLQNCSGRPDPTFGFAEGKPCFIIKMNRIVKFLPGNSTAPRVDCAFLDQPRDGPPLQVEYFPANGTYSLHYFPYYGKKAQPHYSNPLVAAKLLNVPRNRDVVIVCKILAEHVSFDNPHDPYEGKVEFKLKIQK
# Chain of Potassium-transporting ATPase (P19156 whole entry): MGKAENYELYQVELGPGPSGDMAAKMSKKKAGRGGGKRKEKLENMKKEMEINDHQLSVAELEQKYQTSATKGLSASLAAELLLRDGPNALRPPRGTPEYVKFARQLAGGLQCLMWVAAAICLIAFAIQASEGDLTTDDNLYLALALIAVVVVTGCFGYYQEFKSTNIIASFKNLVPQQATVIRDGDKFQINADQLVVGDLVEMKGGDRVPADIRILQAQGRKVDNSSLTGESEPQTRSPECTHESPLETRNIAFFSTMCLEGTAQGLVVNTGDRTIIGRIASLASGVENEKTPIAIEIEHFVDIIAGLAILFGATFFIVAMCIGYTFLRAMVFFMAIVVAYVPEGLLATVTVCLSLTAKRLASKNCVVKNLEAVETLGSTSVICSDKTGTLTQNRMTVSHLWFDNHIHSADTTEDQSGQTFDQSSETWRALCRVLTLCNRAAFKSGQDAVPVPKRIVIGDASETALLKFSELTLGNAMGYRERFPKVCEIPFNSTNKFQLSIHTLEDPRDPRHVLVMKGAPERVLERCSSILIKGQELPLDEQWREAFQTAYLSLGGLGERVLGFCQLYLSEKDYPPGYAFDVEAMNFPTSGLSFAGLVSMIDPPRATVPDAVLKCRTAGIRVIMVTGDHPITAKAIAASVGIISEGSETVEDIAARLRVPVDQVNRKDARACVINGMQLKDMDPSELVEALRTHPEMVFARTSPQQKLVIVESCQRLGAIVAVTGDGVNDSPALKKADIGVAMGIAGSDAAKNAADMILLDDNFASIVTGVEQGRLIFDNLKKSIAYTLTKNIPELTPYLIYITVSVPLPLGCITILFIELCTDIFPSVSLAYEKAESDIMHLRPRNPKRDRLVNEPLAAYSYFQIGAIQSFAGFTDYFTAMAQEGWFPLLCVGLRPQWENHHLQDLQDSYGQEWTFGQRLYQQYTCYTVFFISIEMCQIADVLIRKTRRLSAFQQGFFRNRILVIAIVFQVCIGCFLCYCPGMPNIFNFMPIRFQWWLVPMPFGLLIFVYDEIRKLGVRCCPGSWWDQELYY
# [3] = molecular target: T1, Potassium-transporting ATPase (Sus scrofa); assay: The compound was tested for its inhibitory activity against H+/K+ ATPase by using hog stomach membrane fractions (pH 6.4) at 4 uM
# [4] = molecular target: T1, Potassium-transporting ATPase (Sus scrofa); assay: The compound was tested for its inhibitory activity against H+/K+ ATPase by using hog stomach membrane fractions at 10 uM
# [5] = molecular target: T1, Potassium-transporting ATPase (Sus scrofa); assay: The compound was tested for its inhibitory activity against H+/K+ ATPase by using hog stomach membrane fractions at 8 uM
Structure (SMILES),IC50 [2] [nM],also measured
Cc1cnc(C(CO)Cc2cccc3ccccc23)cc1OCc1ccccn1 (stereo unspecified),,inhibition [1]: 21%
Cc1cnc(C(CO)Cc2cccc3ccccc23)cc1OCC(C)(C)C (stereo unspecified),600,
CC#CCOc1cc(C(CO)Cc2cccc3ccccc23)ncc1C (stereo unspecified),,inhibition [3]: 22%
Cc1cnc(C(CO)Cc2cccc3ccccc23)cc1OCc1ccccc1O (stereo unspecified),1800,
Cc1cnc(C(CO)Cc2cccc3ccccc23)cc1Oc1ccccc1 (stereo unspecified),,inhibition [4]: 36%
Cc1cnc(C(CO)Cc2cccc3ccccc23)cc1OCCOc1ccccc1 (stereo unspecified),,inhibition [5]: 27%
CC(C)=CCOc1cc(C(CO)Cc2cccc3ccccc23)ncc1C (stereo unspecified),3000,
COc1ccccc1COc1cc(/C(=C\c2cccc3ccccc23)CO)ncc1C,1700,
Cc1cnc(/C(=C\c2cccc3ccccc23)CO)cc1OCc1ccccc1O,900,
Cc1cnc(C(CO)Cc2cccc3ccccc23)cc1OC1CCCCC1 (stereo unspecified),500,
Cc1cnc(C(CO)Cc2cccc3ccccc23)cc1OCC1CCCCC1 (stereo unspecified),3100,
